Among the data in PubChem BioAssay AID1963960 (Molecular Pharmacology Branch, DTP, NCI, 2024) are IC50 and viability, T/C values, retold here.

Where “and” joins values, the source holds several entries; their conditions need not be identical. Identical values can stand only once. Where only a bound is given, the exact number is not on record here.

The experiment deals with MDA-MB-468 spheroids with HUVEC/MSC, viability. Description: Anticancer human tumor MDA-MB-468 cell line growth inhibition [PI3K].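 On all read-outs here: spheroids exposed to agents for seven days before readout.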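 On viability, T/C: 100% = DMSO vehicle control viability.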 To be noted: for viability, T/C: stronger effect = lower value. In outline: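 Complex 3D spheroids (cancer cells + endothelial HUVEC + mesenchymal stem cells); drug pairs of targeted agent x inavolisib/alpelisib/duvelisib/copanlisib; half-log series from ~Cmax, max 10 microM if Cmax unknown; endpoint viability.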

Where [1] appears, read: curve of first compound, second compound 0.00316 µM.
Setting [2] is: curve of first compound, second compound 0.01 µM.
The mark [3] stands for this setting: curve of first compound, second compound 0.0316 µM.
Setting [4] is: curve of first compound, second compound 0.1 µM.
Where [5] appears, read: curve of first compound, second compound 0.316 µM.
[6] abbreviates: curve of first compound, second compound 1 µM.
Setting [7] is: second compound 0.00316 µM, first compound 0.0316 µM.
Where [8] appears, read: second compound 0.00316 µM, first compound 0.1 µM.
The mark [9] stands for this setting: second compound 0.00316 µM, first compound 0.316 µM.
Setting [10] is: second compound 0.00316 µM, first compound 1 µM.
The mark [11] stands for this setting: second compound 0.00316 µM, first compound 3.16 µM.
Setting [12] is: second compound 0.00316 µM, first compound 10 µM.
[13] abbreviates: second compound 0.01 µM, first compound 0.0316 µM.
The mark [14] stands for this setting: second compound 0.01 µM, first compound 0.1 µM.
Where [15] appears, read: second compound 0.01 µM, first compound 0.316 µM.
The mark [16] stands for this setting: second compound 0.01 µM, first compound 1 µM.
[17] abbreviates: second compound 0.01 µM, first compound 3.16 µM.
Where [18] appears, read: second compound 0.01 µM, first compound 10 µM.
Where [19] appears, read: second compound 0.0316 µM, first compound 0.0316 µM.
The mark [20] stands for this setting: second compound 0.0316 µM, first compound 0.1 µM.
[21] abbreviates: second compound 0.0316 µM, first compound 0.316 µM.
The mark [22] stands for this setting: second compound 0.0316 µM, first compound 1 µM.
[23] abbreviates: second compound 0.0316 µM, first compound 3.16 µM.
Setting [24] is: second compound 0.0316 µM, first compound 10 µM.
Setting [25] is: second compound 0.1 µM, first compound 0.0316 µM.
Setting [26] is: second compound 0.1 µM, first compound 0.1 µM.
Setting [27] is: second compound 0.1 µM, first compound 0.316 µM.
Where [28] appears, read: second compound 0.1 µM, first compound 1 µM.
Where [29] appears, read: second compound 0.1 µM, first compound 3.16 µM.
Setting [30] is: second compound 0.1 µM, first compound 10 µM.
Setting [31] is: second compound 0.316 µM, first compound 0.0316 µM.
[32] abbreviates: second compound 0.316 µM, first compound 0.1 µM.
The mark [33] stands for this setting: second compound 0.316 µM, first compound 0.316 µM.
Where [34] appears, read: second compound 0.316 µM, first compound 1 µM.
Setting [35] is: second compound 0.316 µM, first compound 3.16 µM.
Where [36] appears, read: second compound 0.316 µM, first compound 10 µM.
Where [37] appears, read: second compound 1 µM, first compound 0.0316 µM.
[38] abbreviates: second compound 1 µM, first compound 0.1 µM.
[39] abbreviates: second compound 1 µM, first compound 0.316 µM.
Setting [40] is: second compound 1 µM, first compound 1 µM.
The mark [41] stands for this setting: second compound 1 µM, first compound 3.16 µM.
Setting [42] is: second compound 1 µM, first compound 10 µM.

The IC50 is the concentration that gives 50% inhibition. A word on the viability, T/C: it is the ratio of treated to control.

Consider `CC(C)NCC(C(=O)N1CCN(c2ncnc3c2C(C)CC3O)CC1)c1ccc(Cl)cc1` (stereo not drawn) + CC(Nc1ccc2c(c1)OCCn1cc(N3C(=O)OCC3C(F)F)nc1-2)C(N)=O, for which the IC50 was found to be 1.29 µM under setting [1]; 0.759 µM under setting [2]; 0.749 µM under setting [3]; 0.576 µM under setting [4]; 0.678 µM under setting [5]; 0.311 µM under setting [6]. Also, the viability, T/C runs as follows: under setting [7], 90.2%; under setting [8], 91.3%; under setting [9], 72.5%; under setting [10], 60.1%; under setting [11], 27.5%; under setting [12], 25.5%. The viability, T/C by setting is: under setting [13], 113%; under setting [14], 88%; under setting [15], 67.7%; under setting [16], 45.8%; under setting [17], 27.8%; under setting [18], 23.7%. Besides, the viability, T/C runs as follows: under setting [19], 88.1%; under setting [20], 85.5%; under setting [21], 65.6%; under setting [22], 45.1%; under setting [23], 29.5%; under setting [24], 24.4%. Moreover, the viability, T/C is 104% under setting [25]; 83.6% under setting [26]; 57.2% under setting [27]; 45.1% under setting [28]; 24.3% under setting [29]; 21.4% under setting [30]. The viability, T/C was 89.8% under setting [31]; 81.3% under setting [32]; 65.7% under setting [33]; 42.5% under setting [34]; 26.4% under setting [35]; 22% under setting [36]. The viability, T/C was 82.5% under setting [37]; 65.3% under setting [38]; 50.1% under setting [39]; 37% under setting [40]; 26.2% under setting [41]; 21.2% under setting [42].

Take `C=CC(=O)N1CCN(c2nc(=O)n(-c3c(C)ccnc3C(C)C)c3nc(-c4c(O)cccc4F)c(F)cc23)C(C)C1` (stereo not drawn): the viability, T/C reads like this: (compound 0.0316 µM) 94.1% [middle of 4 runs]; (compound 0.1 µM) 96.2% [middle of 4 runs]; (compound 1 µM) 107% (2×) and 89.3% and 105%; (compound 3.16 µM) 101% [middle of 4 runs]; (compound 10 µM) 78.6% [middle of 4 runs]. Also, the IC50 (curve of compound) was over 10 µM.

Consider `Cn1ncnc1[C@H]1c2n[nH]c(=O)c3cc(F)cc(c23)N[C@@H]1c1ccc(F)cc1`, for which the viability, T/C by setting is: (compound 0.000316 µM) 95.9% [middle of 4 runs]; (compound 0.001 µM) 93.9% [middle of 4 runs]; (compound 0.00316 µM) 85.1% [middle of 4 runs]; (compound 0.01 µM) 82.2% [middle of 4 runs]; (compound 0.0316 µM) 87.3% [middle of 4 runs]; (compound 0.1 µM) 56.5% [middle of 4 runs]. Besides, for the setting “curve of compound”, the IC50 is over 0.1 µM.

Regarding `CC(Cn1ccc(-c2ccc(C#N)c(Cl)c2)n1)NC(=O)c1cc(C(C)O)[nH]n1` (stereo not drawn), the viability, T/C was 98% [middle of 4 runs] (compound 0.0316 µM); 87.6% [middle of 4 runs] (compound 0.1 µM); 87.2% and 90.1% and 102% (2×) (compound 0.316 µM); 96.8% [middle of 4 runs] (compound 1 µM); 83.8% [middle of 4 runs] (compound 3.16 µM). Further, the IC50 (curve of compound) is over 10 µM.

With `CCCS(=O)(=O)Nc1ccc(F)c(C(=O)c2c[nH]c3ncc(-c4ccc(Cl)cc4)cc23)c1F` + COc1c(OCCCN2CCOCC2)ccc2c3n(c(=NC(=O)c4cnc(N)nc4)nc12)CCN3, the IC50 runs as follows: under setting [1], 5.17 µM; under setting [2], 5.38 µM; under setting [3], 4.5 µM; under setting [4], 2.11 µM; under setting [5], under 0.0316 µM; under setting [6], under 0.0316 µM. The viability, T/C under setting [7] was 84.8%; the viability, T/C under setting [8] is 102%; the viability, T/C under setting [9] is 84.6%; the viability, T/C under setting [10] was 102%; the viability, T/C under setting [11] was 74.1%; the viability, T/C under setting [12] is 17.9%. For the same compound, the viability, T/C by setting is: under setting [13], 84.2%; under setting [14], 82.3%; under setting [15], 93.9%; under setting [16], 84.3%; under setting [17], 75.6%; under setting [18], 20%. The viability, T/C under setting [19] is 74.1%; the viability, T/C under setting [20] was 78.2%; the viability, T/C under setting [21] was 76.5%; the viability, T/C under setting [22] was 74.3%; the viability, T/C under setting [23] was 64.9%; the viability, T/C under setting [24] was 16.2%. The viability, T/C by setting is: under setting [25], 55.8%; under setting [26], 56.5%; under setting [27], 64.7%; under setting [28], 59.1%; under setting [29], 45.2%; under setting [30], 12.3%. Moreover, the viability, T/C reads like this: under setting [31], 28.1%; under setting [32], 29.7%; under setting [33], 29.1%; under setting [34], 27.6%; under setting [35], 26.6%; under setting [36], 8.09%. Further, the viability, T/C under setting [37] is 4.14%; the viability, T/C under setting [38] is 4.88%; the viability, T/C under setting [39] was 4.04%; the viability, T/C under setting [40] was 5.95%; the viability, T/C under setting [41] was 5.41%; the viability, T/C under setting [42] was 3.73%.
